Our source for the Potency and CF values is ChEMBL document CHEMBL1126455, “Syntheses of new metabolically stabilized TXA2/PGH2-receptor antagonists and their biological properties” (1992).

The species named for test [1] is Homo sapiens. The experiment in a line: Potency of was determined relative to the SQ 29548 by inhibition of aggregation of human platelet rich plasma induced by 10*-6 M U 46619. It counts as functional.
Test [2] has as its target T1, Thromboxane A2 receptor (Homo sapiens) (UniProt P21731).
T1 sequence (whole entry): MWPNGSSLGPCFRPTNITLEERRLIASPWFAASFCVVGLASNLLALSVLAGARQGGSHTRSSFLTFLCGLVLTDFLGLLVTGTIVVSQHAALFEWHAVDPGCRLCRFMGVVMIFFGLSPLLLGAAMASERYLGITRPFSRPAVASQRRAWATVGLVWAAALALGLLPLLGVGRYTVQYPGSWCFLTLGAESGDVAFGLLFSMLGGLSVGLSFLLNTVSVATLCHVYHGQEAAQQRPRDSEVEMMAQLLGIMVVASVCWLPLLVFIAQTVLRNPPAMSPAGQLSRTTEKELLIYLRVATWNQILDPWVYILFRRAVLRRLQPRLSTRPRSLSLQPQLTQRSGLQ
The experiment in a line: Competition factor for Thromboxane A2 receptor/Prostaglandin H2 receptor was determined by CF=(ID50-test)/(ID50-standard).

In the case of `O=C(O)COCCCC[C@H]1[C@H](CNS(=O)(=O)c2ccc(F)cc2)C2CC1(c1ccc(F)cc1)CO2` (some centres not stated), the Potency in test [1] came out at 0.08. This compound also gave a CF in test [2] of 0.5.

Consider `Cc1ccc(S(=O)(=O)N[C@@H]2C3CC(c4ccc(F)cc4)(CO3)[C@H]2C/C=C\COCC(=O)O)cc1` (some centres not stated), for which, in test [1], the Potency is 0.003. Further, the CF in test [2] amounted to 170.

On to `O=C(O)CCC/C=C\C[C@H]1[C@H](NS(=O)(=O)c2ccc(F)cc2)C2CC1(c1ccc(F)cc1)CO2` (some centres not stated), for which, in test [1], the Potency was 0.0004. In test [2], the CF was 120.

For the compound `Cc1ccc(S(=O)(=O)N[C@@H]2C3CC(c4ccc(F)cc4)(CO3)[C@H]2C/C=C\CCCC(=O)O)cc1` (some centres not stated), the Potency in test [1] was 0.001. In addition, the CF in test [2] came to 45.

On to `Cc1ccc(S(=O)(=O)NC[C@@H]2C3CC(c4ccc(F)cc4)(CO3)[C@H]2CCCCOCC(=O)O)cc1` (some centres not stated), for which the Potency in test [1] came out at 0.03. The CF in test [2] worked out at 0.4.

With `O=C(O)COCC=CC[C@H]1[C@H](NS(=O)(=O)c2ccc(F)cc2)C2CC1(c1ccc(F)cc1)CO2` (some centres not stated), the Potency in test [1] worked out at 0.003. The compound further yielded a CF in test [2] of 400.

With `O=C(O)COCCCC[C@H]1[C@H](CNS(=O)(=O)c2ccc(Cl)cc2)C2CC1(c1ccc(F)cc1)CO2` (some centres not stated), in test [1], the Potency came out at 0.08. The same compound gave a CF in test [2] of 0.1.

As to `O=C(O)COCCCC[C@H]1[C@H](CNS(=O)(=O)c2ccc(Cl)c(Cl)c2)C2CC1(c1ccc(-c3ccccc3)cc1)CO2` (some centres not stated), the Potency in test [1] came out at 0.03. Moreover, the CF in test [2] was found to be 3.

Take `O=C(O)CCC/C=C\C[C@H]1[C@H](CNS(=O)(=O)c2ccc(Cl)c(Cl)c2)C2CC1(c1ccc(-c3ccccc3)cc1)CO2` (some centres not stated): the Potency in test [1] was 0.01. In addition, the CF in test [2] was determined as 4.2.

On to `Cc1ccc(S(=O)(=O)N[C@@H]2C3CC(c4ccc(F)cc4)(CO3)[C@H]2CCCCOCC(=O)O)cc1` (some centres not stated), for which the Potency in test [1] worked out at 0.003. In addition, the CF in test [2] stood at 27.

In turn, `O=C(O)CCCCCC[C@H]1[C@H](CNS(=O)(=O)c2ccc(Cl)c(Cl)c2)C2CC1(c1ccc(-c3ccccc3)cc1)CO2` (some centres not stated) came in with a Potency in test [1] of 0.01. In test [2], this compound returned a CF of 12.

For `O=C(O)CCC/C=C\C[C@H]1[C@H](CNS(=O)(=O)c2ccc(Cl)c(Cl)c2)C2CC1(c1ccc(F)cc1)CO2` (some centres not stated), in test [1], the Potency is on record as 0.01. In test [2], the CF was determined as 0.5.

For the compound `O=C(O)CCC/C=C\C[C@H]1[C@H](CNS(=O)(=O)c2ccc(Cl)cc2)C2CC1(c1ccc(F)cc1)CO2` (some centres not stated), the Potency in test [1] came out at 0.01. Further, the CF in test [2] is 0.2.

Turning to `O=C(O)CCC/C=C\C[C@H]1[C@H](CNS(=O)(=O)c2ccc(F)cc2)C2CC1(c1ccc(F)cc1)CO2` (some centres not stated), the Potency in test [1] is on record as 0.03. This compound showed a CF in test [2] of 0.3.

`O=C(O)COCCCC[C@H]1[C@H](CNS(=O)(=O)c2ccc(Cl)c(Cl)c2)C2CC1(c1ccc(F)cc1)CO2` (some centres not stated) returned a Potency in test [1] of 0.08. In addition, in test [2], the CF is 0.4.

`Cc1ccc(S(=O)(=O)NC[C@@H]2C3CC(c4ccc(F)cc4)(CO3)[C@H]2C/C=C\CCCC(=O)O)cc1` (some centres not stated) returned a Potency in test [1] of 0.01. Moreover, the CF in test [2] was 0.4.
